According to patent publication US20230117034A1, “PYRAZOLOTRIAZINES” (Bayer Aktiengesellschaft, priority 2019, published 2023):

Tests used:
[1] = target: T1, CYCLIN K (nuclear staining in CAL-120 cells) (Homo sapiens, UniProt O75909); assay: CYCLIN K nuclear protein level: immunofluorescence high content analysis (CAL-120); format: cell-based; conditions: 24 h, 50% reduction of nuclear CCNK staining intensity, median, read-out: CYCLIN K degradation IF, DC50-[mol/l] (median)
T1 construct: endogenous in cells; host or cells: CAL-120 human breast cancer cells (DSMZ ACC 459)
T1 sequence (O75909 whole entry): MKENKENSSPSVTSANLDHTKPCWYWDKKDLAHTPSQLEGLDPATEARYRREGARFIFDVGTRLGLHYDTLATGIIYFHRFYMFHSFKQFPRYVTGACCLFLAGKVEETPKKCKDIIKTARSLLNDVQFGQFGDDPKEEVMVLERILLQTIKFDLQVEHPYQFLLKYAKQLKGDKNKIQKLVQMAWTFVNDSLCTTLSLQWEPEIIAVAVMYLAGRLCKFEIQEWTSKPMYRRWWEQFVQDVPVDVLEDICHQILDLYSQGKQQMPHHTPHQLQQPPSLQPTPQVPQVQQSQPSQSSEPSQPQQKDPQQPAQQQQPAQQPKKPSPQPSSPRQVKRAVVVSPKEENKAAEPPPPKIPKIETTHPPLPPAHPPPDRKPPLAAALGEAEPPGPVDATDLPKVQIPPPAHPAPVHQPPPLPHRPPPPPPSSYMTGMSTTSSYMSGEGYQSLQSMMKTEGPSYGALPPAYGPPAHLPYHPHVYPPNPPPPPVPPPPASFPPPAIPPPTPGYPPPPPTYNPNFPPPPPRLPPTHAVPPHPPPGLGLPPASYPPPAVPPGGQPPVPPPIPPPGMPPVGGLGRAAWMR
T1 sequence (Q9NYV4 whole entry partner): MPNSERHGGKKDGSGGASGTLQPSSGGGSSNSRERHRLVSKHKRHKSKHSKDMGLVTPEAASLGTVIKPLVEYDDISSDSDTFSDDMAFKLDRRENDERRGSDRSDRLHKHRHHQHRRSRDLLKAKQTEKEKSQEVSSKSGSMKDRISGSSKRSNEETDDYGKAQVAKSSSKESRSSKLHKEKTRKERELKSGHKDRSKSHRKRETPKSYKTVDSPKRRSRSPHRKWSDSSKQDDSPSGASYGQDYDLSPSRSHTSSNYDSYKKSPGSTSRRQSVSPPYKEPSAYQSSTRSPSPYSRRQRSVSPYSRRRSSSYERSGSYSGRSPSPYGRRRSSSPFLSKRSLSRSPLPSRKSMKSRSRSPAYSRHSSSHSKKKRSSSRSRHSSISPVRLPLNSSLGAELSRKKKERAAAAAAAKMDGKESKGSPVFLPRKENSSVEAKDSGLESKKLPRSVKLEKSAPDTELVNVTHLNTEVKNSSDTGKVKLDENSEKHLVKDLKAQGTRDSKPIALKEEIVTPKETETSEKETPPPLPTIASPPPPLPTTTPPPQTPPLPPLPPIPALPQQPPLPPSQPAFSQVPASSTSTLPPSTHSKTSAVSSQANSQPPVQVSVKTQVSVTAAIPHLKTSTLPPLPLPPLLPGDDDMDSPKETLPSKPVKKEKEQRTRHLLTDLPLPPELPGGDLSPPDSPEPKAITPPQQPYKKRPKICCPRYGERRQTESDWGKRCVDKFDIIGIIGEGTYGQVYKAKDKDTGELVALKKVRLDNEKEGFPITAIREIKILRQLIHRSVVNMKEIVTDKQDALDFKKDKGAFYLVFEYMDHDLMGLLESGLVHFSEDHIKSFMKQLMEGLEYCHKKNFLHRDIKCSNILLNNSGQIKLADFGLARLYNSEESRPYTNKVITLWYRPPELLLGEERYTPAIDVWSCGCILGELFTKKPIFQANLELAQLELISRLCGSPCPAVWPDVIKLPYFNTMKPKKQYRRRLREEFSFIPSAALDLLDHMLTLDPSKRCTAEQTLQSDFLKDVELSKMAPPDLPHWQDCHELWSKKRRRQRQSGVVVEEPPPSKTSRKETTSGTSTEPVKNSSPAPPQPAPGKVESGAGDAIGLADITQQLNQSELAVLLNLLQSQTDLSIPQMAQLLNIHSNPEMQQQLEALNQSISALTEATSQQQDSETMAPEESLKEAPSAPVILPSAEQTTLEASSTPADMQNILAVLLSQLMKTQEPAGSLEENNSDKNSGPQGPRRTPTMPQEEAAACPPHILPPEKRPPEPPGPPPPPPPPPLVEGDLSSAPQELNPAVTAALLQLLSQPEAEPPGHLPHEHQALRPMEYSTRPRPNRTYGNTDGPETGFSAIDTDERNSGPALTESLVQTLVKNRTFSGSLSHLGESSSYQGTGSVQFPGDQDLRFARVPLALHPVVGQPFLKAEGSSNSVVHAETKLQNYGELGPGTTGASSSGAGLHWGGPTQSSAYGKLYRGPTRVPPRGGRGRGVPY
Outline: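 CAL-120 breast cancer cells treated in dose-response for 24 h at 37 °C, PFA-fixed and immunostained for cyclin K with Hoechst counterstain. Confocal imaging quantified nuclear intensity; DC50 is the concentration giving 50% reduction of nuclear CCNK staining, normalized to DMSO and control.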

CDK12/CycK = CDK12/CycK (Homo sapiens, UniProt Q9NYV4); assay: CDK12/CycK high ATP kinase assay (TR-FRET, 2 mM ATP); format: biochemical; conditions: 2 mM ATP (high ATP); median; read-out: CDK12/CyclinK, 2 mM ATP (high ATP), IC50-[mol/l] (median)
CDK12/CycK, sequence (Q9NYV4 with tags, fused parts or gaps): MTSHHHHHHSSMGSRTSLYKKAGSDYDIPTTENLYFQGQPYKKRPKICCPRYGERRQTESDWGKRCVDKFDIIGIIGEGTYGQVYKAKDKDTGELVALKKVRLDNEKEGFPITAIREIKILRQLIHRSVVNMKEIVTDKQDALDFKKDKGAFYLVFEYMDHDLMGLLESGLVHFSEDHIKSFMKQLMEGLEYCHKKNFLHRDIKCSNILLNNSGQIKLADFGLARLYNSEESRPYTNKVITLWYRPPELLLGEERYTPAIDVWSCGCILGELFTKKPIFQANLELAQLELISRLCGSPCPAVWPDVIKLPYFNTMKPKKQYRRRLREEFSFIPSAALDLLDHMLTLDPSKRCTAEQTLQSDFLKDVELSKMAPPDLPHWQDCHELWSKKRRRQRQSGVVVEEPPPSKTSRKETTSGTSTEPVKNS
CDK12/CycK, sequence (O75909 1-300 partner limits assumed): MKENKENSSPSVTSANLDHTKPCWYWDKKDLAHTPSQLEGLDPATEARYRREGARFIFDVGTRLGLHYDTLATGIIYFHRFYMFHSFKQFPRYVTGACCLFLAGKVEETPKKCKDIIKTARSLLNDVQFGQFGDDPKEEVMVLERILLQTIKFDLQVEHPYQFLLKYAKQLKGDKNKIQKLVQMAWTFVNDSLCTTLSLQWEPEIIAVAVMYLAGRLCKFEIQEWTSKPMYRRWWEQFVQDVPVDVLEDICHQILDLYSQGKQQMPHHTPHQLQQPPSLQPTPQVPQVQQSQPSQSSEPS
Outline: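 His-tagged human CDK12/CycK (~0.75 nM) pre-incubated 15 min with compound, then 60 min at 22 °C with 2 mM ATP and 1 µM biotinylated peptide (HEPES pH 7.5, 20 mM MgCl2). EDTA stop; phospho-Ser62 antibody/Eu anti-rabbit and streptavidin-XL665 TR-FRET, 665/620 nm ratio normalised to give IC50.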

[2] = test system: BRCA1 mRNA expression in MDA-MB-231 cells; assay: qRT-PCR assay: BRCA1 mRNA expression in MDA-MB-231; format: cell-based, human; conditions: Homo sapiens, MDA-MB-231, Inhibition of BRCA1 mRNA expression in MDA-MB-231 cells; median; read-out: RTqPCR-MDA-MB-231, IC50, BRCA1 (median)
Outline: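 GAPDH-normalised RT-qPCR measures the transcript after 24 h continuous compound treatment of cells seeded at 200,000/well one day earlier.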

DC50 [1] [nM]	IC50 (CDK12/CycK) [nM]	IC50 [2] [nM]	SMILES
2.91	> 20000	87.4	c1cncc(-c2cnn3c(NCc4nc5ccccc5[nH]4)nc(N4CCOCC4)nc23)c1 [Example 108, N-[(1H-benzimidazol-2-yl)methyl]-2-(morpholin-4-yl)-8-(pyridin-3-yl)pyrazolo[1,5-a][1,3,5]triazin-4-amine]
0.0663	9620	1.68	CN1CCN(c2nc(NCc3nc4c(F)c(F)ccc4[nH]3)n3ncc(C4CC4)c3n2)CC1 [Example 159, 8-cyclopropyl-N-[(4,5-difluoro-1H-benzimidazol-2-yl)methyl]-2-(4-methylpiperazin-1-yl)pyrazolo[1,5-a][1,3,5]triazin-4-amine]
5.03	12600	71.2	CC1(C)CN(c2nc(NCc3nc4ccccc4[nH]3)n3ncc(C4CC4)c3n2)CCO1 [Example 123, N-[(1H-benzimidazol-2-yl)methyl]-8-cyclopropyl-2-(2,2-dimethylmorpholin-4-yl)pyrazolo[1,5-a][1,3,5]triazin-4-amine]
0.163	10800	19.1	C[C@@H]1CN(c2nc(NCc3nc4ccccc4[nH]3)n3ncc(Br)c3n2)C[C@H](C)N1 [Example 142, N-(1H-benzimidazol-2-ylmethyl)-8-bromo-2-[(3R,5S)-3,5-dimethylpiperazin-1-yl]pyrazolo[1,5-a][1,3,5]triazin-4-amine]
